Laboratory results from patent EP0808325B1, “[…] […] SERIES FOR […] GABA RECEPTOR” (priority 1994, dated 1996).

Experiments:
[1] = system: metrazol induced convulsions; assay: animal or person; format: in vivo, mice
rats [2] = assay: Geller-Seifter conflict test; format: in vivo, Sprague-Dawley rats
Text: This animal model of human anxiety utilizes a conditioned state of conflict in rats to ascertain the anxiolytic properties of drugs. Rats are conditioned to bar press for positive reinforcement under two schedules of behavior (Geller and Seifter, Psychopharmacologia 1:482-492 (1960)). The first includes bar pressing under a […] schedule without punishment. The second component is a fixed ratio schedule with each bar press resulting in a positive reinforcement and a punishment. The punished component produces a state of conflict within the animal. […] An anxiolytic response would increase the punished responding without affecting the unpunished responding.
Male albino Sprague-Dawley rats (Charles River Labs, Wilmington, MA) weighing 250-300 g were used for conflict experiments and were kept on a restricted diet of Purina Lab Chow food pellets with water available at all times to maintain body weight at 85% of their free-feeding young adult levels. Rats were housed individually under a 12-hour light-dark cycle with lights on from 0700-1900.
The anti-anxiety (punishment-lessening) and response depressant effects of […] and […] were measured in rats by the conflict test of Geller and Seifter (1960). In this 63-min test, hungry rats perform a lever-press response to obtain a sweetened milk reward. The reinforcement schedule consists of punishment and nonpunishment components, alternating approximately every 15 min. Rats were trained in test chambers (Coulbourn instruments) with a lever mounted in one wall, a small dipper that delivered the 0.1-mL milk reward (1 part Eagle condensed : milk 2 parts water), and a metal grid floor through which the foot-shock punishment was administered. A DEC PDP 11/73 minicomputer running SKED (State Systems) was used for programming and recording.
Rates initially learned to respond on a continuous reinforcement schedule and progressed rapidly to 30-sec, 1-min, and 2-min variable interval (VI) schedules. On the continuous reinforcement schedule, rats received milk reward following every lever press; on the VI schedules, milk rewards were available at infrequent and variable intervals, eventually at an average of once every 2 min. Four 3-min "conflict" periods were then introduced on the unpunished VI baseline; the first started after 3 min of VI performance and the others were alternated between 12-min periods of VI responding. During conflict periods, which were signalled by the presentation of a light and a tone, the continuous reinforcement schedule was again in force and each lever press delivered both a milk reward and a brief ([…]) foot-shock punishment. Shock intensity was 0.2 mA initially, and.was increased daily in increments of 0.02 mA in order to gradually suppress lever pressing to 5 responses or less per conflict period. This training took 4-6 weeks, after which stable low rates of response were observed during conflict periods and stable high rates in the nonpunishment periods. Drug-induced increases in the rate of punished responses were taken as an index of antianxiety activity, while decreases in the rate of unpunished responses were taken as an index of response depression or sedation.

rats [3] = assay: Vogel test; format: in vivo; conditions: i.c.v., b-CD, 10 ug
Text: The Vogel test is based on the development of a conflict between a highly motivated behavior and an aversion. For this test, the strong motivation is thirst. The animal is water deprived for 12-16 hrs to produce the motivation to drink. During the training period the animals are exposed to the testing environment so they become accustomed to the drinking spout and minimize the fear of a novel environment. Following training, the animals are allowed access to water for 2 hrs. During this time, the animals will drink and eat their normal amount of water and food, compensating for the deprivation time. However, this schedule still produces a strong motivation to drink during the testing period.
Having been deprived of water for twelve to sixteen hours, an animal is placed in a test cage where it is allowed to drink freely for five minutes. This period is used to habituate the animal to the environment and the drinking spout Following the training period, animals have access to water and food in their home cage for 2 hrs. Food is available at all times. Twenty-four hours later, drug is administered to the animal intracerebroventricularly.
After an indicated delay started from the time of injection the animal is again placed in the test cage for ten minutes. A computer counts each time the animal licks, and after every twentieth lick administers a mild electric stimulus across the tongue and/or feet. The electrical stimulus consists of a 0.6 mA current with a duration of 100 msec. This procedure produces a state of conflict for the animal that is reduced by the administration of clinically used anxiolytic agents (i.e., Valium). For dose-response curves, separate groups of animals are injected with increasing doses of test drug and are tested at a predetermined time.

[4] = conflict test, subcutaneous administration

SMILES: CC(=O)[C@H]1CC[C@H]2[C@@H]3CC[C@H]4C[C@H](O)CC[C@]4(C)[C@H]3CC[C@]12C [3α-hydroxy-5α-pregnan-20-one, reference compound]
- % Protected ([1]; IP, 50% hpbcd, 10 mg/kg, 10 minutes prior to metrazol (85 mg/kg)): 100%
- ED50 ([1]; Mus musculus, metrazol s.c., steroid i.p., 20% hydroxypropyl-β-cyclodextrin in water): 4.9 mg/kg
- dose at which the peak effect was observed (rats [2]; [4]): 4.4 mg/kg
- rate of punished responses (rats [2]; [4]): large increases
- Geller/Seifter (% of control) (rats [2]; sc, 50% hpbcd, 5 mg/kg): 471.8 % of control
- Vogel (% of control) (rats [3]): 431.1 % of control
